In patent publication US8012956B2, “Tropane compounds” (Exelixis, Inc., priority 2007, dated 2011):
pIC50: −log10 of the molar value.

Molecular target: HSP90 (Homo sapiens, UniProt P07900)
Test: HSP90 inhibition (HSP90 IC50)
Type: biochemical

pIC50 | Structure (SMILES)
> 6.30 | Cc1cc(C(N)=O)c(NC(C)C)cc1C(=O)N[C@H]1C[C@H]2CC[C@@H](C1)N2c1ccc(C(=O)C2CC2)cn1 [N-{8-[5-(cyclopropylcarbonyl)pyridin-2-yl]-8-azabicyclo[3.2.1]oct-3-endo-yl}-2-methyl-5-[(1-methylethyl)amino]benzene-1,4-dicarboxamide]
5.00 to 5.70 | CCNc1c(C)c(C(=O)NC2CC3CCC(C2)N3c2ccc(C(=O)N[C@@H](C)c3ccc(N4CCN(C)CC4)cc3)cn2)cc(C)c1C(N)=O (stereo partly drawn) [3-(ethylamino)-2,5-dimethyl-N1-(8-{5-[({(1S)-1-[4-(4-methylpiperazin-1-yl)phenyl]ethyl}amino)carbonyl]pyridin-2-yl}-8-azabicyclo[3.2.1]oct-3-endo-yl)benzene-1,4-dicarboxamide]
> 6.30 | NC(=O)c1ccc(C(=O)N[C@H]2C[C@H]3CC[C@@H](C2)N3c2ccc(C(=O)C3CC3)cn2)cc1NC1CCCC1
5.00 to 5.70 | COc1cccc(C(=O)N[C@H]2C[C@H]3CC[C@@H](C2)N3c2ccc(C(=O)NCc3cccc(C)c3)cn2)c1C [6-[3-endo-({[2-methyl-3-(methyloxy)phenyl]carbonyl}amino)-8-azabicyclo[3.2.1]oct-8-yl]-N-[(3-methylphenyl)methyl]pyridine-3-carboxamide]
5.00 to 5.70 | NC(=O)c1ccc(C(=O)N[C@H]2C[C@H]3CC[C@@H](C2)N3c2ccc(C(=O)CN3CCCCC3)cn2)cc1NCC1CC1 [2-[(cyclopropylmethyl)amino]-N4-{8-[5-(piperidin-1-ylacetyl)pyridin-2-yl]-8-azabicyclo[3.2.1]oct-3-endo-yl}benzene-1,4-dicarboxamide]
> 6.30 | Cc1cc(C(N)=O)c(NC(C)C2(C)CC2)cc1C(=O)N[C@H]1C[C@H]2CC[C@@H](C1)N2c1ccc(C(=O)C2CC2)cn1 (stereo partly drawn) [N-{8-[5-(cyclopropylcarbonyl)pyridin-2-yl]-8-azabicyclo[3.2.1]oct-3-endo-yl}-2-methyl-5-{[1-(1-methylcyclopropyl)ethyl]amino}benzene-1,4-dicarboxamide]
> 6.30 | CC[C@@H](C)Nc1cc(C(=O)NC2CC3CCC(C2)N3c2ccc(C(=O)C3CC3)cn2)ccc1C(N)=O (stereo partly drawn) [N4-{8-[5-(cyclopropylcarbonyl)pyridin-2-yl]-8-azabicyclo[3.2.1]oct-3-endo-yl}-2-{[(1R)-1-methylpropyl]amino}benzene-1,4-dicarboxamide]
6.00 to 6.30 | COc1cccc(C(=O)N[C@H]2C[C@H]3CC[C@@H](C2)N3c2ccc(C(=O)NC3CNC3)cn2)c1C [N-azetidin-3-yl-6-[3-endo-({[2-methyl-3-(methyloxy)phenyl]carbonyl}amino)-8-azabicyclo[3.2.1]oct-8-yl]pyridine-3-carboxamide]
> 6.30 | COc1cccc(C(=O)N[C@H]2C[C@H]3CC[C@@H](C2)N3c2ccc(C(=O)NCc3ccc(N4CCN(CC(C)C)CC4)cc3)cn2)c1C [6-[3-endo-({[2-methyl-3-(methyloxy)phenyl]carbonyl}amino)-8-azabicyclo[3.2.1]oct-8-yl]-N-({4-[4-(2-methylpropyl)piperazin-1-yl]phenyl}methyl)pyridine-3-carboxamide]
> 6.30 | CC(=O)c1ccc(N2[C@@H]3CC[C@H]2C[C@@H](NC(=O)c2ccc(C(N)=O)c(NCCOC(C)C)c2)C3)nc1 [N4-[8-(5-acetylpyridin-2-yl)-8-azabicyclo[3.2.1]oct-3-endo-yl]-2-({2-[(1-methylethyl)oxy]ethyl}amino)benzene-1,4-dicarboxamide]
> 6.30 | CCC(CC)Nc1cc(C(=O)NC2CC3CCC(C2)N3c2ccc(C(=O)N[C@@H]3CCN(C(C)C)C3)cn2)ccc1C(N)=O (stereo partly drawn) [2-[(1-ethylpropyl)amino]-N4-{8-[5-({[(3R)-1-(1-methylethyl)pyrrolidin-3-yl]amino}carbonyl)pyridin-2-yl]-8-azabicyclo[3.2.1]oct-3-endo-yl}benzene-1,4-dicarboxamide]
6.00 to 6.30 | CCCOCCCNC(=O)c1ccc(N2[C@@H]3CC[C@H]2C[C@@H](NC(=O)c2cccc(OC)c2C)C3)nc1 [6-[3-endo-({[2-methyl-3-(methyloxy)phenyl]carbonyl}amino)-8-azabicyclo[3.2.1]oct-8-yl]-N-[3-endo-(propyloxy)propyl]pyridine-3-carboxamide]
5.70 to 6.00 | CC(C)CC(=O)c1ccc(N2[C@@H]3CC[C@H]2C[C@@H](NC(=O)c2ccc(C(N)=O)c(NCC4CC4)c2)C3)nc1 [2-[(cyclopropylmethyl)amino]-N4-{8-[5-(3-methylbutanoyl)pyridin-2-yl]-8-azabicyclo[3.2.1]oct-3-endo-yl}benzene-1,4-dicarboxamide]
5.00 to 5.70 | COc1cccc(C(=O)N[C@H]2C[C@H]3CC[C@@H](C2)N3c2ccc(C(=O)Nc3cc(C)cc(C)c3)cn2)c1C [N-(3,5-dimethylphenyl)-6-[3-endo-({[2-methyl-3-(methyloxy)phenyl]carbonyl}amino)-8-azabicyclo[3.2.1]oct-8-yl]pyridine-3-carboxamide]
> 6.30 | COc1ccc([C@H](C)NC(=O)c2ccc(N3C4CCC3CC(NC(=O)c3cccc(OC)c3C)C4)nc2)c(F)c1 (stereo partly drawn) [N-{(1S)-1-[2-fluoro-4-(methyloxy)phenyl]ethyl}-6-[3-endo-({[2-methyl-3-(methyloxy)phenyl]carbonyl}amino)-8-azabicyclo[3.2.1]oct-8-yl]pyridine-3-carboxamide]
5.00 to 5.70 | N=C(N)c1ccc(C(=O)N[C@H]2C[C@H]3CC[C@@H](C2)N3c2ccc(C(=O)NCc3ccccc3)cn2)cc1 [6-{3-endo-[({4-[amino(imino)methyl]phenyl}carbonyl)amino]-8-azabicyclo[3.2.1]oct-8-yl}-N-(phenylmethyl)pyridine-3-carboxamide]
> 6.30 | COc1cccc(C(=O)NC2CC3CCC(C2)N3c2ccc(C(=O)NC(C)c3ccccc3)cn2)c1C (stereo not shown)
5.70 to 6.00 | CCOCCCNC(=O)c1ccc(N2[C@@H]3CC[C@H]2C[C@@H](NC(=O)c2cccc(OC)c2C)C3)nc1 [N-[3-(ethyloxy)propyl]-6-[3-endo-({[2-methyl-3-(methyloxy)phenyl]carbonyl}amino)-8-azabicyclo[3.2.1]oct-8-yl]pyridine-3-carboxamide]
> 6.30 | COc1cccc(C(=O)N[C@H]2C[C@H]3CC[C@@H](C2)N3c2ccc(C(=O)NCc3ccccc3C)cn2)c1C [6-[3-endo-({[2-methyl-3-(methyloxy)phenyl]carbonyl}amino)-8-azabicyclo[3.2.1]oct-8-yl]-N-[(2-methylphenyl)methyl]pyridine-3-carboxamide]
> 6.30 | CC(C)Nc1cc(C(=O)N[C@H]2C[C@H]3CC[C@@H](C2)N3c2ccc(C(=O)C3CC3)cn2)c(Br)cc1C(N)=O [2-bromo-N-{8-(5-(cyclopropylcarbonyl)pyridin-2-yl]-8-azabicyclo[3.2.1]oct-3-endo-yl}-5-[(1-methylethyl)amino]benzene-1,4-dicarboxamide]
5.70 to 6.00 | COc1cccc(C(=O)N[C@H]2C[C@H]3CC[C@@H](C2)N3c2ccc(C(=O)NCc3cc(OC)c(OC)c(OC)c3)cn2)c1C [6-[3-endo-({[2-methyl-3-(methyloxy)phenyl]carbonyl}amino)-8-azabicyclo[3.2.1]oct-8-yl]-N-{[3,4,5-tris(methyloxy)phenyl]methyl}pyridine-3-carboxamide]
> 6.30 | CCCCNc1cc(C(=O)N[C@H]2C[C@H]3CC[C@@H](C2)N3c2ccc(C(C)=O)cn2)ccc1C(N)=O [N4-[8-(5-acetylpyridin-2-yl)-8-azabicyclo[3.2.1]oct-3-endo-yl]-2-(butylamino)benzene-1,4-dicarboxamide]
